Measured values reported in publication PMC3756936 (Journal of medicinal chemistry, 2013).
Like-named read-outs stand apart in the source and are kept apart here.

Assays:
COS = conditions: African green monkey
CHO = conditions: Chinese hamster
HEK293 cells = conditions: human
[1] = Mouse liver microsomal stability; type: in vitro ADME; conditions: liver microsomes, 37 °C
CpIMPDH = target: T1, CpIMPDH (Cryptosporidium parvum, UniProt Q8T6T2); assay: biochemical; type: biochemical; conditions: for inhibition mechanism with respect to NAD+: best fit; for inhibition mechanism with respect to NAD+ / inhibition mechanism with respect to IMP: in words
T1 sequence (Q8T6T2 1-400): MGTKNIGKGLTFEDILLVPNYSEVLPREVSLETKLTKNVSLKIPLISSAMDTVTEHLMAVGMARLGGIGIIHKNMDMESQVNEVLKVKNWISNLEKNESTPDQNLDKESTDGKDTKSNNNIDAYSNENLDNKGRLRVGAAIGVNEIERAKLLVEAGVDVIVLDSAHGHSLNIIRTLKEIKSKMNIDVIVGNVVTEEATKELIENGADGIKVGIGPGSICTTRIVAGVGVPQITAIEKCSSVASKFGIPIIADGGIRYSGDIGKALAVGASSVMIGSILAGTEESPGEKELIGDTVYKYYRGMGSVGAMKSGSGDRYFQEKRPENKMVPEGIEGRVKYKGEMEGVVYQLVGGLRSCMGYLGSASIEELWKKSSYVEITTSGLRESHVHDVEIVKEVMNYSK

HeLa = conditions: human
[2] = test system: Toxo/CpIMPDH (T. gondii strain that relies on CpIMPDH); assay: microbe, parasite or virus in culture; type: cell-based, Toxoplasma gondii; conditions: for EC50: Toxoplasma gondii, read-out: EC50 Toxo/CpIMPDH

Q: For `C[C@H](Nc1cccc(Cl)c1Cl)C(=O)Nc1ccc2oc(-c3ccncc3)nc2c1` [15a, (S)-2-(2,3-dichlorophenylamino)-N-(2-(pyridine-4-yl)benzo[d]oxazol-5-yl) propionamide], which LD50 (COS) is on record?
A: > 50 µM

Q: And the LD50 (CHO)?
A: > 50 µM

Q: And the LD50 (HEK293 cells)?
A: > 50 µM

Q: For `C[C@H](Oc1cccc(Cl)c1Cl)C(=O)Nc1ccc2nc(-c3ccncc3)oc2c1` [40a, (S)-2-(2,3-dichlorophenoxy)-N-(2-(pyridin-4-yl)benzo[d]oxazol-6-yl)propionamide], which LD50 (COS) is on record?
A: > 50 µM

Q: And the LD50 (CHO)?
A: > 50 µM

Q: What about the half-life ([1]; t1/2 (min) + NADPH, + NADPH) of the same compound?
A: ≤ 12 min

Q: And the half-life ([1]; t1/2 (min) − NADPH, − NADPH)?
A: ≤ 12 min

Q: And the LD50 (HEK293 cells)?
A: > 50 µM

Q: Which Ki (CpIMPDH; Kis (nM), Substrate IMP) does the source give for `CC(Oc1ccc(Cl)cc1Cl)C(=O)Nc1ccc2oc(-c3ccncc3)nc2c1` (stereo not drawn) [compound 1] here?
A: 58 ± 5 nM

Q: And the Ki (CpIMPDH; Kis (nM), Substrate NAD)?
A: 33 ± 8 nM

Q: And the “inhibition mechanism with respect to NAD+” value (CpIMPDH)?
A: competitive

Q: And the “inhibition mechanism with respect to IMP” value (CpIMPDH)?
A: noncompetitive

Q: Which LD50 (COS) does the source give for `CC(Oc1ccccc1Cl)C(=O)Nc1ccc2oc(-c3ccncc3)nc2c1` (stereo not drawn) [compound 41, 2-(2-chlorophenoxy)-N-(2-(pyridine-4-yl)benzo[d]oxazol-5-yl)propionamide] here?
A: > 50 µM

Q: What about the LD50 (HeLa) of the same compound?
A: > 50 µM

Q: What about the LD50 (CHO) of the same compound?
A: > 50 µM

Q: What about the LD50 (HEK293 cells) of the same compound?
A: ~ 12.5 μM

Q: For `COc1ccc(OC(C)C(=O)Nc2ccc3oc(-c4ccncc4)nc3c2)cc1` (stereo not drawn) [compound 44, 2-(4-methoxyphenoxy)-N-(2-(pyridine-4-yl)benzo[d]oxazol-5-yl)propionamide], which LD50 (COS) is on record?
A: > 50 µM

Q: What about the LD50 (CHO) of the same compound?
A: > 50 µM

Q: And the LD50 (HEK293 cells)?
A: > 50 µM

Q: Which results are given for `CC(Oc1cccc(Cl)c1Cl)C(=O)Nc1ccc2oc(-c3ccncc3)nc2c1` (stereo not drawn) [compound 46, 2-(2,3-dichlorophenoxy)-N-(2-(pyridine-4-yl)benzo[d]oxazol-5-yl)propionamide]?
A: LD50 (COS): > 50 µM; LD50 (CHO): > 50 µM; LD50 (HEK293 cells): > 50 µM; selectivity versus Toxo/WT [2]: > 30 fold; EC50 [2]: ≤ 250 nM

Q: Which results are given for `CC(Oc1cccc2ccccc12)C(=O)Nc1ccc2oc(-c3ccncc3)nc2c1` (stereo not drawn) [compound 48, 2-(naphthalene-1-yloxy)-N-(2-(pyridine-4-yl)benzo[d]oxazol-5-yl)propionamide]?
A: selectivity versus Toxo/WT [2]: > 30 fold; EC50 [2]: ≤ 250 nM

Q: Which half-life ([1]; t1/2 (min) + NADPH, + NADPH) does the source give for `C[C@H](Oc1cccc(Cl)c1Cl)C(=O)Nc1ccc2oc(-c3ccncc3)nc2c1` [compound 55, (S)-2-(2,3-dichlorophenoxy)-N-(2-(pyridin-4-yl)benzo[d]oxazol-5-yl)propionamide] here?
A: ≤ 12 min

Q: And the half-life ([1]; t1/2 (min) − NADPH, − NADPH)?
A: ≤ 12 min

Q: What does the source list for `C[C@H](Oc1cccc([N+](=O)[O-])c1Cl)C(=O)Nc1ccc2oc(-c3ccncc3)nc2c1` [compound 57, (S)-2-(2-chloro-3-nitrophenoxy)-N-(2-(pyridine-4-yl)benzo[d]oxazol-5-yl)propionamide]?
A: LD50 (COS): > 50 µM; LD50 (CHO): > 50 µM; LD50 (HEK293 cells): > 50 µM

Q: Which half-life ([1]; t1/2 (min) + NADPH, + NADPH) does the source give for `C[C@H](Oc1cccc(Cl)c1Cl)C(=O)Nc1ccc2oc(-c3cncs3)nc2c1` [compound 62, (S)-2-(2,3-dichlorophenoxy)-N-(2-(thiazol-5-yl)benzo[d]oxazol-5-yl)propionamide] here?
A: ≤ 12 min

Q: And the half-life ([1]; t1/2 (min) − NADPH, − NADPH)?
A: ≤ 12 min

Q: For `C[C@H](Oc1cccc2ccccc12)C(=O)Nc1ccc2oc(-c3cncs3)nc2c1` [compound 63, (S)-2-(naphthalene-1-yloxy)-N-(2-(thiazol-5-yl)benzo[d]oxazol-5-yl)propionamide], which Ki (CpIMPDH; Kis (nM), Substrate IMP) is on record?
A: 1.6 ± 0.7 nM

Q: And the Ki (CpIMPDH; Kis (nM), Substrate NAD)?
A: 0.9 ± 0.3 nM

Q: And the “inhibition mechanism with respect to NAD+” value (CpIMPDH)?
A: competitive

Q: And the “inhibition mechanism with respect to IMP” value (CpIMPDH)?
A: noncompetitive

Q: With `C[C@H](Oc1cccc(Cl)c1Cl)C(=O)Nc1cc(Cl)c2oc(-c3ccncc3)nc2c1` [compound 68, (S)-N-(7-chloro-2-(pyridin-4-yl)benzo[d]oxazol-5-yl)-2-(2,3-dichlorophenoxy)propionamide] as the compound, how does the Ki (CpIMPDH) read?
A: 150 ± 30 nM

Q: And the Ki (CpIMPDH; Kis (nM), Substrate IMP)?
A: 210 ± 10 nM

Q: What about the “inhibition mechanism with respect to NAD+” value (CpIMPDH) of the same compound?
A: competitive

Q: What about the “inhibition mechanism with respect to IMP” value (CpIMPDH) of the same compound?
A: noncompetitive

Q: Which results are given for `C[C@@H](C(=O)Nc1ccc2oc(-c3ccncc3)nc2c1)c1ccccc1` [compound 72, (R)-2-phenyl-N-(2-(pyridine-4-yl)benzo[d]oxazol-5-yl)propionamide]?
A: Ki (CpIMPDH; Kis (nM), Substrate IMP): 100 ± 20 nM; Ki (CpIMPDH; Kis (nM), Substrate NAD): 40 ± 10 nM; inhibition mechanism with respect to NAD+ (CpIMPDH): competitive; inhibition mechanism with respect to IMP (CpIMPDH): noncompetitive
